Measurements: publication PMC3961306, “Comparison of the Cancer Gene Targeting and Biochemical Selectivities of All Targeted Kinase Inhibitors Approved for Clinical Use” (PLoS ONE, 2014)
Where two headings read alike, the source gives them in different places.

Columns and labels:
[1] = molecular target: panel of more than 300 wild-type and mutant kinases (313 kinase panel) (Homo sapiens, UniProt P22694); experiment: Kinase profiling in a biochemical assay panel (mobility shift assays and ELISA), %-inhibition at 1 μM; selectivity entropy; details: kinase PKACβ; 1 μM
[2] = molecular target: T1, panel of more than 300 wild-type and mutant kinases (313 kinase panel) (Homo sapiens, UniProt P30530); experiment: as above; details: kinase AXL; 1 μM compound
T1 sequence (P30530 26-894): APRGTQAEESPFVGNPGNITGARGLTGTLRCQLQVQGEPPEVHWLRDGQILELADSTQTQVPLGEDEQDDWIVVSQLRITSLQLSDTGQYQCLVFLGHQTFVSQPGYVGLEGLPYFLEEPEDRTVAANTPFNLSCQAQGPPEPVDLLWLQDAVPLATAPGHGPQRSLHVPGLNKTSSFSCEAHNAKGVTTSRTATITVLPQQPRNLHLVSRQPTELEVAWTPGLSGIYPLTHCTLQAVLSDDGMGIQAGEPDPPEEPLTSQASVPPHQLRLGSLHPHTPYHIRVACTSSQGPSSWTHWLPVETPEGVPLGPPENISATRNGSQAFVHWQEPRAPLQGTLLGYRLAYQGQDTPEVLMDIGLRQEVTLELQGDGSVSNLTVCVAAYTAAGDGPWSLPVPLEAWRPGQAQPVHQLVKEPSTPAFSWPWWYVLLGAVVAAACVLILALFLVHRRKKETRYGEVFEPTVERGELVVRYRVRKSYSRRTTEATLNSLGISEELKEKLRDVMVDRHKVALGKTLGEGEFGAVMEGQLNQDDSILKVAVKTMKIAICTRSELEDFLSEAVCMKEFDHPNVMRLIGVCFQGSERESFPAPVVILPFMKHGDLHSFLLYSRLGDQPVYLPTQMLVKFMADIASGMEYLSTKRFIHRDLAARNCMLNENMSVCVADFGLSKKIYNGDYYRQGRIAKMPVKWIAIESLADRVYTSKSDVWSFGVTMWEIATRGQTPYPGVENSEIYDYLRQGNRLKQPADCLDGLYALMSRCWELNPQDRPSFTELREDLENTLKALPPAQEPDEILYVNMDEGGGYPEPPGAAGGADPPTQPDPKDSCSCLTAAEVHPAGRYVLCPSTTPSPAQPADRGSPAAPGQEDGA

[3] = molecular target: panel of more than 300 wild-type and mutant kinases (313 kinase panel) (Homo sapiens, UniProt P00533, L858R); experiment: as above; details: kinase EGFR(L858R); compound at 1 μM
[4] = molecular target: T2, panel of more than 300 wild-type and mutant kinases (313 kinase panel) (Homo sapiens, UniProt P51955); experiment: as above; details: kinase NEK2; 1 μM
T2 sequence (P51955 1-445): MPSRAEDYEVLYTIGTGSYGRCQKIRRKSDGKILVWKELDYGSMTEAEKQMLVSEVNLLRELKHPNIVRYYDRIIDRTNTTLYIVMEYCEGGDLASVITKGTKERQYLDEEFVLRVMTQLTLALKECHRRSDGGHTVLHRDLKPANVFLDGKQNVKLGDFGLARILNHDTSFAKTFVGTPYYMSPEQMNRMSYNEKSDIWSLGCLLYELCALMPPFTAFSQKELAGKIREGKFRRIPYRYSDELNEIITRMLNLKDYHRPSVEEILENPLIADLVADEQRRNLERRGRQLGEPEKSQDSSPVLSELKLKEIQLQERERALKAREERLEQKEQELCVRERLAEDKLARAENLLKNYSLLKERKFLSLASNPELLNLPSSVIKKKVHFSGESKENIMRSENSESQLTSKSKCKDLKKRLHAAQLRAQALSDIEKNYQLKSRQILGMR

[5] = molecular target: panel of more than 300 wild-type and mutant kinases (313 kinase panel) (Homo sapiens, UniProt Q9NQU5); experiment: as above; details: kinase PAK6; 1 μM
[6] = molecular target: panel of more than 300 wild-type and mutant kinases (313 kinase panel) (Homo sapiens, UniProt P00519, E255K); experiment: as above; details: kinase ABL(E255K); 1 μM compound
[7] = system: forty-four human cancer cell lines; experiment: Cell proliferation assay (ATPlite, 72 hours) in the 44 cell line Oncolines panel; format: cell-based; details: Homo sapiens

panel of more than 300 wild-type and mutant kinases (313 kinase panel) (Homo sapiens, UniProt P00533, L858R), sequence (P00533 25-1210 L858R): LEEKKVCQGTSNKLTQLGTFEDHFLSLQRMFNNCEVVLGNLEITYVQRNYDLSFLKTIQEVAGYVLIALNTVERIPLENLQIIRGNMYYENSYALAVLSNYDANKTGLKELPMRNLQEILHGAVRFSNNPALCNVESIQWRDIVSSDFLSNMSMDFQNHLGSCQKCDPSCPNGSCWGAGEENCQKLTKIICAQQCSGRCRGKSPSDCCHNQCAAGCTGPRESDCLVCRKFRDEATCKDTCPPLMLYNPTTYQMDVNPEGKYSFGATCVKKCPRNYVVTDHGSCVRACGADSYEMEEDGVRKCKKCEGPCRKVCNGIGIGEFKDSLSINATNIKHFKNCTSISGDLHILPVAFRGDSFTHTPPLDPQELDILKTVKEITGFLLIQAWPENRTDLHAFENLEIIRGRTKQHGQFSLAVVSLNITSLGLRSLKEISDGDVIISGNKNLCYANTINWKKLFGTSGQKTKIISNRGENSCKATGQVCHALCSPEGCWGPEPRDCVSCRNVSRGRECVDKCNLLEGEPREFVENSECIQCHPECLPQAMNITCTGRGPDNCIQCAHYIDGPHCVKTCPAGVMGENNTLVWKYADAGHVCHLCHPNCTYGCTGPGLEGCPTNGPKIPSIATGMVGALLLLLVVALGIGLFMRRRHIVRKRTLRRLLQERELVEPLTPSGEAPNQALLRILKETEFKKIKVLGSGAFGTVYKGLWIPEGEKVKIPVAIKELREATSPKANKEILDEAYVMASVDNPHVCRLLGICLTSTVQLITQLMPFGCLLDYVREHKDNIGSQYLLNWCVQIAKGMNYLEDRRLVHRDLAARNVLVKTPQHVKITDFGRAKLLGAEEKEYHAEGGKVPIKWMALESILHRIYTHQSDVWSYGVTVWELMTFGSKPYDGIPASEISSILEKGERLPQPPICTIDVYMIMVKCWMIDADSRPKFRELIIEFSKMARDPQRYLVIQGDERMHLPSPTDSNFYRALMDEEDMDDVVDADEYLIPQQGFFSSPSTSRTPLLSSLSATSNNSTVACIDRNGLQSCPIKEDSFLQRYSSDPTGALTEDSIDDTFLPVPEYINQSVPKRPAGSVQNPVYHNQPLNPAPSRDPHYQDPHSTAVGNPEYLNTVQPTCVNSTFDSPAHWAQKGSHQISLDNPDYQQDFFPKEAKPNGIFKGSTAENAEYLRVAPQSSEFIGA
panel of more than 300 wild-type and mutant kinases (313 kinase panel) (Homo sapiens, UniProt P00519, E255K), sequence (P00519 whole entry E255K): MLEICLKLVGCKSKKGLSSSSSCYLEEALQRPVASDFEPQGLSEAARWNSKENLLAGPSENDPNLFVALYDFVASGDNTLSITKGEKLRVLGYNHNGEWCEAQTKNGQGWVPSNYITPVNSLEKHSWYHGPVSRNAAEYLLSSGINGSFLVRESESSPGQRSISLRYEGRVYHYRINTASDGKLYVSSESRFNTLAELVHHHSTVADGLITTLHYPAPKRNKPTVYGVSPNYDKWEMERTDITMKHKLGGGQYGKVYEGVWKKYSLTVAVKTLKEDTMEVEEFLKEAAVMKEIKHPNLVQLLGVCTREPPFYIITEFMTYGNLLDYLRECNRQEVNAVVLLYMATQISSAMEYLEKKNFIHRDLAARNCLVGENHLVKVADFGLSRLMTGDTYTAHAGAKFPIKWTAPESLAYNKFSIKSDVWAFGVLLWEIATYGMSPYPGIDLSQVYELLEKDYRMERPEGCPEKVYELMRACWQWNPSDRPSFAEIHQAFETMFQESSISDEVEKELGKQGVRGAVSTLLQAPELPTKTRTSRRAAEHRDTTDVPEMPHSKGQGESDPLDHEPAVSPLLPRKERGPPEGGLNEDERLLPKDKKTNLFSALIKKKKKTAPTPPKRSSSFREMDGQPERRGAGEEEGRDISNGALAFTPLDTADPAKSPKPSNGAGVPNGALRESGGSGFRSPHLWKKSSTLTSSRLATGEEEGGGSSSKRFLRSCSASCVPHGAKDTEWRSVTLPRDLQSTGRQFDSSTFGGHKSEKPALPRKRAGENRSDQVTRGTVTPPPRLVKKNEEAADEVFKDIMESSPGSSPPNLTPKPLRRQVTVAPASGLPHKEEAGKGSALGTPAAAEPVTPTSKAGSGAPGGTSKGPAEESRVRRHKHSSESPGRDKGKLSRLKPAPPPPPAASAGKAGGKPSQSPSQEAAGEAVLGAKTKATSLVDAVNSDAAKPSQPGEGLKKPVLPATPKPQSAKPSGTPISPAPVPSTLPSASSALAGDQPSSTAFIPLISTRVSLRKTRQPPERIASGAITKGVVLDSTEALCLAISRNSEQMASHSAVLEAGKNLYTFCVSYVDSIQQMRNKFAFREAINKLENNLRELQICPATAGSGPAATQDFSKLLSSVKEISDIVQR

CNC(=O)c1cc(Oc2ccc(NC(=O)Nc3ccc(Cl)c(C(F)(F)F)c3)c(F)c2)ccn1 [regorafenib]
%-inhibition of PKACβ [1]: -0.531%
%-inhibition, AXL [2]: 29%
%-inhibition of EGFR(L858R) [3]: 2.24%
%-inhibition of NEK2 [4]: -6.65%
%-inhibition of PAK6 [5]: -8%
%-inhibition, ABL(E255K) [6]: 33%
IC50 ([7]; A 172, read-out: cell panel IC50, A-172): 3.95 µM
IC50 ([7]; A204, cell line A-204, read-out: cell panel IC50, A-204): 3.01 µM
IC50 ([7]; A498, read-out: cell panel IC50, A-498): 3.41 µM
IC50 ([7]; A549, read-out: cell panel IC50, A-549): 2.92 µM
IC50 ([7]; A-375, cell line A375, read-out: cell panel IC50, A375): 3.56 µM
IC50 ([7]; A-427, read-out: cell panel IC50, A-427): 8.73 µM
IC50 ([7]; AU565, read-out: cell panel IC50, AU-565): 0.687 µM
IC50 ([7]; BT-549, read-out: cell panel IC50, BT-549): 16.6 µM
IC50 ([7]; HCT-116, read-out: cell panel IC50, HCT-116): 3.51 µM
IC50 ([7]; K562, read-out: cell panel IC50, K-562): 4.17 µM
IC50 ([7]; LS174T, read-out: cell panel IC50, LS 174T): 3.76 µM
IC50 ([7]; SHP77, cell line SHP-77, read-out: cell panel IC50, SHP-77): > 31.6 µM
IC50 ([7]; SW-620, cell line SW620, read-out: cell panel IC50, SW620): 9.66 µM
IC50 ([7]; U2OS, cell line U-2 OS, read-out: cell panel IC50, U-2 OS): 3.08 µM
IC50 ([7]; cell line J82, read-out: cell panel IC50, J82): 3.27 µM
IC50 ([7]; cell line PA-1, read-out: cell panel IC50, PA-1): 2.96 µM
IC50 ([7]; cell line SJCRH30, read-out: cell panel IC50, SJCRH30): 10.7 µM
IC50 ([7]; cell line SR, read-out: cell panel IC50, SR): 3.1 µM
IC50 ([7]; U-87 MG cell line, ATPlite, 72 hours, read-out: IC50 in cell proliferation assay (table S5 cellpanel data)): 11.8 µM
IC50 ([7]; cell line 769-P, read-out: cell panel IC50, 769-P): 2.9 µM
IC50 ([7]; cell line 786-0, read-out: cell panel IC50, 786-0): 7.29 µM
IC50 ([7]; cell line ACHN, read-out: cell panel IC50, ACHN): 1.82 µM
IC50 ([7]; cell line AN3 CA, read-out: cell panel IC50, AN3 CA): 5.84 µM
IC50 ([7]; cell line BT-20, read-out: cell panel IC50, BT-20): 3.93 µM
IC50 ([7]; cell line BxPC-3, read-out: cell panel IC50, BxPC-3): 4 µM
IC50 ([7]; cell line C-33 A, read-out: cell panel IC50, C-33 A): 1.02 µM
IC50 ([7]; cell line CAL 27, read-out: cell panel IC50, CAL 27): 1.54 µM
IC50 ([7]; cell line CCRF-CEM, read-out: cell panel IC50, CCRF-CEM): 9.54 µM
IC50 ([7]; cell line DLD-1, read-out: cell panel IC50, DLD-1): 3.54 µM
IC50 ([7]; cell line FaDu, read-out: cell panel IC50, FaDu): 1.62 µM
IC50 ([7]; cell line HCT-15, read-out: cell panel IC50, HCT-15): 3.15 µM
IC50 ([7]; cell line Hs 578T, read-out: cell panel IC50, Hs 578T): 22.6 µM
IC50 ([7]; cell line Jurkat E6.1, read-out: cell panel IC50, Jurkat E6.1): 2.52 µM
IC50 ([7]; cell line LoVo, read-out: cell panel IC50, LoVo): 2.7 µM
IC50 ([7]; cell line MG-63, read-out: cell panel IC50, MG-63): 3.63 µM
IC50 ([7]; cell line MOLT-4, read-out: cell panel IC50, MOLT-4): 3.31 µM
IC50 ([7]; cell line MeWo, read-out: cell panel IC50, MeWo): 30.8 µM
IC50 ([7]; cell line NCI-H82, read-out: cell panel IC50, NCI-H82): 3.58 µM
IC50 ([7]; cell line NCI-H460, read-out: cell panel IC50, NCI-H460): 3.95 µM
IC50 ([7]; cell line OVCAR-3, read-out: cell panel IC50, OVCAR-3): 3.63 µM
IC50 ([7]; cell line RPMI-7951, read-out: cell panel IC50, RPMI-7951): 5.88 µM
IC50 ([7]; cell line SK-N-AS, read-out: cell panel IC50, SK-N-AS): 6.43 µM
IC50 ([7]; cell line SW48, read-out: cell panel IC50, SW48): 1.01 µM
IC50 ([7]; cell line SW480, read-out: cell panel IC50, SW480): > 31.6 µM
